Experimental findings from PubChem BioAssay (NCI) are described below.

Values joined by “and” are separate entries in the source; they are usually repeats but may differ in a detail not shown here. Equal values may be shown once.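 Interpolation was linear, between the two tested concentrations surrounding the appropriate level; five concentrations were tested over 48 hours in 96-well plates. Abbreviation: GI50, concentration required for 50% inhibition of growth. TGI: concentration producing complete growth inhibition.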

Some test systems named below: HCC-2998 colon; HS 578T breast; IGROV1 ovarian; KM12 colon; OVCAR-4 ovarian; OVCAR-8 ovarian; SF-539 CNS; SR leukemia; UACC-257 melanoma; UACC-62 melanoma.
Common to all, as to assay: NCI tumour cell line growth inhibition, 48 h

Take `COc1ccc2nc3ccccc3c(NCCNCC(C)O)c2c1` (stereo not given): the GI50 with HCC-2998 colon is 519 nM; in the test on HS 578T breast it was 1100 nM; with IGROV1 ovarian, 387 nM; in the test on KM12 colon it was 536 nM; in the test on OVCAR-4 ovarian it was 463 nM; with OVCAR-8 ovarian it was 441 nM. The GI50 was 435 nM in the test with SF-539 CNS, 278 nM with SR leukemia, 810 nM in the test with UACC-257 melanoma and 354 nM in the test on UACC-62 melanoma. For the same molecule, the TGI turned out to be 2370 nM with HCC-2998 colon; 12200 nM with HS 578T breast; 5930 nM in the test on IGROV1 ovarian; 14200 nM in the test with KM12 colon; 4450 nM in the test with OVCAR-4 ovarian; 11900 nM in the test with OVCAR-8 ovarian. Moreover, the TGI in the test on SF-539 CNS turned out to be 2040 nM; in the test on SR leukemia, 10800 nM; in the test with UACC-257 melanoma, 3840 nM; with UACC-62 melanoma, 2080 nM.
For the molecule `CNC(=O)c1cc(Oc2ccc(NC(=O)Nc3cc(C(C)(C)C)nn3-c3ccc4ncccc4c3)c(F)c2)ccn1`, the GI50 in the test with HCC-2998 colon was 3210 nM and 3380 nM; in the test on HS 578T breast it was 1140 nM and 1030 nM; with IGROV1 ovarian it was 712 nM and 1260 nM; in the test on KM12 colon, 42.2 nM and 43.3 nM; in the test on OVCAR-4 ovarian it was 2380 nM and 2490 nM; in the test on OVCAR-8 ovarian, 2240 nM and 1990 nM. Further, the GI50 in the test with SF-539 CNS was 2000 nM and 1710 nM; in the test on SR leukemia, 633 nM and 497 nM; in the test with UACC-257 melanoma, 477 nM and 440 nM; in the test on UACC-62 melanoma, 74.3 nM and 62.4 nM. Moreover, the TGI in the test with HCC-2998 colon was 7820 nM and 7780 nM; with HS 578T breast, 5420 nM and 5030 nM; with IGROV1 ovarian, 6610 nM and 6800 nM; with KM12 colon it was 5190 nM and 5410 nM; in the test with OVCAR-4 ovarian, 7740 nM and 14500 nM; with OVCAR-8 ovarian, 7820 nM and 6840 nM. The TGI is 4620 nM and 3660 nM with SF-539 CNS; 3910 nM and 3850 nM with SR leukemia; 5560 nM and 3720 nM with UACC-257 melanoma; 1620 nM and 1180 nM with UACC-62 melanoma.
For the molecule `CCC(c1ccccc1)c1cc(C(C)(C)C)cc(C(C)(C)C)c1O` (stereo not given), the TGI in the test on HCC-2998 colon is 29200 nM; in the test with HS 578T breast it was 32300 nM; in the test on IGROV1 ovarian it was 30700 nM; in the test with KM12 colon it was 32300 nM; in the test on OVCAR-4 ovarian it was 29300 nM; in the test with OVCAR-8 ovarian, 31100 nM. For the same molecule, the TGI was 34200 nM with SF-539 CNS, greater than 100000 nM in the test with SR leukemia, 28500 nM in the test on UACC-257 melanoma and 32200 nM in the test with UACC-62 melanoma.
On to `CN1CCN(c2ccc(NC3=CC(=O)c4ncncc4C3=O)cc2)CC1`, for which the GI50 was 1270 nM in the test on HCC-2998 colon; 1740 nM in the test with HS 578T breast; 231 nM in the test on IGROV1 ovarian; 1670 nM in the test on KM12 colon; 147 nM in the test with OVCAR-4 ovarian; 323 nM in the test on OVCAR-8 ovarian. Further, the GI50 in the test with SF-539 CNS was 612 nM; in the test on SR leukemia it was 321 nM; in the test on UACC-257 melanoma, 177 nM; in the test on UACC-62 melanoma, 303 nM. Moreover, the TGI in the test with HCC-2998 colon stood at 2820 nM; in the test on HS 578T breast, 6290 nM; with IGROV1 ovarian it was 542 nM; in the test on KM12 colon, 4350 nM; in the test with OVCAR-4 ovarian, 280 nM; in the test on OVCAR-8 ovarian it was 1570 nM. In addition, the TGI with SF-539 CNS was 1690 nM; with SR leukemia, greater than 100000 nM; in the test with UACC-257 melanoma, 357 nM; in the test with UACC-62 melanoma it was 804 nM.
As to `O=C1/C(=C/c2ccc([N+](=O)[O-])o2)Oc2ccc(Cl)cc21`, the GI50 is 2180 nM in the test on HCC-2998 colon; 2950 nM with HS 578T breast; 1920 nM in the test with IGROV1 ovarian; 1880 nM in the test with KM12 colon; 1900 nM with OVCAR-4 ovarian; 2060 nM with OVCAR-8 ovarian. In addition, the GI50 was 1820 nM in the test on SF-539 CNS, 267 nM with SR leukemia, 1850 nM in the test with UACC-257 melanoma and 1580 nM with UACC-62 melanoma. The TGI with HCC-2998 colon is 4560 nM; in the test with HS 578T breast it was greater than 27600 nM; in the test with IGROV1 ovarian, 4500 nM; in the test with KM12 colon, 3680 nM; in the test on OVCAR-4 ovarian, 3680 nM; in the test with OVCAR-8 ovarian, greater than 22100 nM. Moreover, the TGI was 3970 nM in the test with SF-539 CNS, 1260 nM in the test with SR leukemia, 4120 nM with UACC-257 melanoma and 3410 nM with UACC-62 melanoma.
Take `COc1ccc2c(c1)-c1c(c3cc(OC)ccc3n(CCN(C)C)c1=O)C2=O`: the GI50 is 1180 nM in the test with HCC-2998 colon; 1700 nM with HS 578T breast; 243 nM with IGROV1 ovarian; 304 nM with KM12 colon; 799 nM with OVCAR-4 ovarian; 310 nM in the test with OVCAR-8 ovarian. In addition, the GI50 is 1990 nM with SF-539 CNS, 592 nM in the test with SR leukemia, 1300 nM with UACC-257 melanoma and 3110 nM in the test with UACC-62 melanoma. Moreover, the TGI with HCC-2998 colon is 9240 nM; with HS 578T breast, 7810 nM; with IGROV1 ovarian, 2310 nM; in the test with KM12 colon, 1280 nM; with OVCAR-4 ovarian it was 4000 nM; in the test on OVCAR-8 ovarian, 5590 nM. Moreover, the TGI in the test with SF-539 CNS was 8580 nM; in the test on SR leukemia, 2640 nM; in the test with UACC-257 melanoma, 4780 nM; with UACC-62 melanoma, 9730 nM.
In the case of `CC12O[C@H](C[C@@H](OC(=O)CCC(=O)O)[C@H]1O)n1c3ccccc3c3c4c(c5c6ccccc6n2c5c31)C(=O)NC4=O`, the GI50 in the test on HCC-2998 colon is 5640 nM; with HS 578T breast, 2430 nM; in the test on IGROV1 ovarian it was 664 nM; with KM12 colon it was 285 nM; in the test with OVCAR-4 ovarian it was 5770 nM; in the test on OVCAR-8 ovarian it was 2650 nM. Moreover, the GI50 with SF-539 CNS is 1220 nM; in the test with SR leukemia, 505 nM; in the test on UACC-257 melanoma, 1520 nM; in the test with UACC-62 melanoma it was 585 nM. Further, the TGI in the test on HCC-2998 colon is 15100 nM; in the test with HS 578T breast, 28400 nM; with IGROV1 ovarian it was 38800 nM; in the test on KM12 colon it was 11500 nM; in the test on OVCAR-4 ovarian, greater than 50000 nM; with OVCAR-8 ovarian, greater than 50000 nM. Further, the TGI in the test on SF-539 CNS was 3970 nM; in the test with SR leukemia, 10500 nM; in the test with UACC-257 melanoma, 10600 nM; in the test with UACC-62 melanoma, 7200 nM.
For the molecule `CC(C)(C)[Si](C)(C)OC1[C@@H](COC(=O)NC(=O)CCl)O[C@@H](n2cnc3c(N)ncnc32)[C@H]1O[Si](C)(C)C(C)(C)C` (stereo not given in full), the GI50 is 5440 nM in the test on HCC-2998 colon; 7620 nM in the test on HS 578T breast; 783 nM in the test with IGROV1 ovarian; 2550 nM in the test on KM12 colon; 3890 nM with OVCAR-4 ovarian; 1420 nM in the test on OVCAR-8 ovarian. Besides, the GI50 in the test with SF-539 CNS was 6970 nM; in the test with SR leukemia, 357 nM; with UACC-257 melanoma, 6980 nM; with UACC-62 melanoma, 6140 nM. The TGI in the test with HCC-2998 colon turned out to be 12600 nM; in the test with HS 578T breast, 19300 nM; in the test with IGROV1 ovarian it was 1670 nM; in the test with KM12 colon it was 6480 nM; in the test on OVCAR-4 ovarian it was 10700 nM; with OVCAR-8 ovarian it was 4450 nM. The TGI with SF-539 CNS was determined as 13600 nM; in the test on SR leukemia, 1310 nM; with UACC-257 melanoma it was 13800 nM; with UACC-62 melanoma, 12700 nM.
